Each structure is given as a SMILES string. Where a SMILES comes first, the peptide text is derived from it. [ ]: non-standard residue; d: D form. Trp(4-Cl)(βS-Me) = C[C@@H](c1c[nH]c2cccc(Cl)c12)[C@H](N)C(=O)O; Trp(βS-Me,4-F) = C[C@@H](c1c[nH]c2cccc(F)c12)[C@H](N)C(=O)O; Bip(4'-COOH) = N[C@@H](Cc1ccc(-c2ccc(C(=O)O)cc2)cc1)C(=O)O; Phe(4-COOH) = N[C@@H](Cc1ccc(C(=O)O)cc1)C(=O)O; Pro(4R-NH2) = N[C@H]1CN[C@H](C(=O)O)C1; 1Nal = N[C@@H](Cc1cccc2ccccc12)C(=O)O; AEF = NCCOc1ccc(C[C@H](N)C(=O)O)cc1; hTyr = N[C@@H](CCc1ccc(O)cc1)C(=O)O; hPhe = N[C@@H](CCc1ccccc1)C(=O)O; 4Pal = N[C@@H](Cc1ccncc1)C(=O)O; dDab = NCC[C@@H](N)C(=O)O; dNMeA = CN[C@H](C)C(=O)O; Dab = NCC[C@H](N)C(=O)O; Nva = CCC[C@H](N)C(=O)O

T1 sequence (P01584 117-269): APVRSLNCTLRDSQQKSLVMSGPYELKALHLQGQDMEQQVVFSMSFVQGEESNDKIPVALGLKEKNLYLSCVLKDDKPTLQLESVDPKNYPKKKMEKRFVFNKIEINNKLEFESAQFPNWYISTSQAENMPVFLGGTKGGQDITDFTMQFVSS

This test concerns the target T1, Recombinant human IL-1β (Homo sapiens, UniProt P01584).
T1 construct: purchased BioLegend 579404
In words: IL-6 assay in MRC5 cells: inhibition of IL-1β induced IL-6 secretion (AlphaLISA). Type of test: cell-based. The following applies: inhibition of IL-1β induced IL-6 secretion in MRC5 cells; read-out: MRC5 IC50. The method, boiled down:
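IL-1β at 2×EC80 in seeding medium (EMEM, 0.025% BSA) preincubated 1 h at ambient temperature with compound, then 3000 MRC5 cells/well added and incubated overnight at 37 °C, 5% CO2. IL-6 in conditioned medium quantified by AlphaLISA; IC50 from 4-parameter logistic fit.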
On the technique in general: In Alpha technology, singlet oxygen from a donor bead excites a nearby acceptor bead.
Take `CC(=O)NCCOc1ccc(C[C@@H]2NC(=O)[C@H](CCc3ccc(O)cc3)NC(=O)[C@@H](C)NC(=O)[C@H](CC(C)C)NC(=O)[C@H](Cc3c[nH]c4ccccc34)NC(=O)[C@H](Cc3ccc(-c4ccc(C(=O)O)cc4)cc3)NC(=O)CNC(=O)[C@@H](C)N(C)C(=O)[C@H](CC(=O)O)NC(=O)[C@H]([C@@H](C)c3c[nH]c4cccc(Cl)c34)NC(=O)[C@@H]3C[C@@H](N)CN3C(=O)CNC(=O)[C@H](Cc3ccc(C(=O)O)cc3)NC(=O)[C@H](Cc3c[nH]c4ccccc34)NC2=O)cc1` [Example 148] (cyclo([AEF](Ac)W[Phe(4-COOH)]G[Pro(4R-NH2)][Trp(4-Cl)(βS-Me)]D[dNMeA]G[Bip(4'-COOH)]WL[dA][hTyr])): the IC50 (usually the midpoint of a concentration-inhibition curve) was determined as 48.3 pM.
The result for `CC(=O)NCCOc1ccc(C[C@@H]2NC(=O)[C@H](CCc3ccc(O)cc3)NC(=O)[C@@H](CCN)NC(=O)[C@H](CC(C)C)NC(=O)[C@H](Cc3c[nH]c4ccccc34)NC(=O)[C@H](Cc3ccc(-c4ccc(C(=O)O)cc4)cc3)NC(=O)CNC(=O)[C@@H](C)N(C)C(=O)[C@H](CC(=O)O)NC(=O)[C@H]([C@@H](C)c3c[nH]c4cccc(Cl)c34)NC(=O)[C@@H]3C[C@@H](N)CN3C(=O)CNC(=O)[C@H](Cc3ccc(C(=O)O)cc3)NC(=O)[C@H](Cc3c[nH]c4ccccc34)NC2=O)cc1` [Example 149] (cyclo([AEF](Ac)W[Phe(4-COOH)]G[Pro(4R-NH2)][Trp(4-Cl)(βS-Me)]D[dNMeA]G[Bip(4'-COOH)]WL[dDab][hTyr])) reads 810 pM.
Consider `CC(=O)NCCOc1ccc(C[C@@H]2NC(=O)[C@H](CCc3ccccc3)NC(=O)[C@@H](C)NC(=O)[C@H](CO)NC(=O)[C@H](Cc3c[nH]c4ccccc34)NC(=O)[C@H](Cc3ccc(-c4ccc(C(=O)O)cc4)cc3)NC(=O)CNC(=O)[C@@H](C)N(C)C(=O)[C@H](CC(=O)O)NC(=O)[C@H]([C@@H](C)c3c[nH]c4cccc(Cl)c34)NC(=O)[C@@H]3C[C@@H](N)CN3C(=O)CNC(=O)[C@H](Cc3ccc(C(=O)O)cc3)NC(=O)[C@H](Cc3c[nH]c4ccccc34)NC2=O)cc1` [Example 150] (cyclo([AEF](Ac)W[Phe(4-COOH)]G[Pro(4R-NH2)][Trp(4-Cl)(βS-Me)]D[dNMeA]G[Bip(4'-COOH)]WS[dA][hPhe])), for which the IC50 came out at 63.3 pM.
The figure for `CC(=O)NCCOc1ccc(C[C@@H]2NC(=O)[C@H](CCc3ccc(O)cc3)NC(=O)[C@@H](C)NC(=O)[C@H](CO)NC(=O)[C@H](Cc3c[nH]c4ccccc34)NC(=O)[C@H](Cc3ccc(-c4ccc(C(=O)O)cc4)cc3)NC(=O)CNC(=O)[C@@H](C)N(C)C(=O)[C@H](CC(=O)O)NC(=O)[C@H]([C@@H](C)c3c[nH]c4cccc(Cl)c34)NC(=O)[C@@H]3C[C@@H](N)CN3C(=O)CNC(=O)[C@H](Cc3ccc(C(=O)O)cc3)NC(=O)[C@H](Cc3c[nH]c4ccccc34)NC2=O)cc1` [Example 151] (cyclo([AEF](Ac)W[Phe(4-COOH)]G[Pro(4R-NH2)][Trp(4-Cl)(βS-Me)]D[dNMeA]G[Bip(4'-COOH)]WS[dA][hTyr])) is 75.9 pM.
The figure for `COC[C@@H]1NC(=O)[C@H](Cc2c[nH]c3ccccc23)NC(=O)[C@H](Cc2ccc(-c3ccc(C(=O)O)cc3)cc2)NC(=O)CNC(=O)[C@@H](C)N(C)C(=O)[C@H](CC(=O)O)NC(=O)[C@H]([C@@H](C)c2c[nH]c3cccc(Cl)c23)NC(=O)[C@@H]2C[C@@H](N)CN2C(=O)CNC(=O)[C@H](Cc2ccc(C(=O)O)cc2)NC(=O)[C@H](Cc2c[nH]c3ccccc23)NC(=O)[C@H](Cc2ccc(OCCNC(C)=O)cc2)NC(=O)[C@H](CCc2ccccc2)NC(=O)[C@@H](C)NC1=O` [Example 152] (cyclo([AEF](Ac)W[Phe(4-COOH)]G[Pro(4R-NH2)][Trp(4-Cl)(βS-Me)]D[dNMeA]G[Bip(4'-COOH)]WS(Me)[dA][hPhe])) is 60 pM; for `COC[C@@H]1NC(=O)[C@H](Cc2c[nH]c3ccccc23)NC(=O)[C@H](Cc2ccc(-c3ccc(C(=O)O)cc3)cc2)NC(=O)CNC(=O)[C@@H](C)N(C)C(=O)[C@H](CC(=O)O)NC(=O)[C@H]([C@@H](C)c2c[nH]c3cccc(Cl)c23)NC(=O)[C@@H]2C[C@@H](N)CN2C(=O)CNC(=O)[C@H](Cc2ccc(C(=O)O)cc2)NC(=O)[C@H](Cc2c[nH]c3ccccc23)NC(=O)[C@H](Cc2ccc(OCCNC(C)=O)cc2)NC(=O)[C@H](CCc2ccc(O)cc2)NC(=O)[C@@H](C)NC1=O` [Example 153] (cyclo([AEF](Ac)W[Phe(4-COOH)]G[Pro(4R-NH2)][Trp(4-Cl)(βS-Me)]D[dNMeA]G[Bip(4'-COOH)]WS(Me)[dA][hTyr])) it is 88 pM.
As to `CC(=O)NCCOc1ccc(C[C@@H]2NC(=O)[C@H](CCc3ccc(O)cc3)NC(=O)[C@@H](C)NC(=O)[C@H](CCN)NC(=O)[C@H](Cc3cccc4ccccc34)NC(=O)[C@H](Cc3ccc(-c4ccc(C(=O)O)cc4)cc3)NC(=O)CNC(=O)[C@@H](C)N(C)C(=O)[C@H](CC(=O)O)NC(=O)[C@H]([C@@H](C)c3c[nH]c4cccc(F)c34)NC(=O)[C@@H]3C[C@@H](N)CN3C(=O)CNC(=O)[C@H](Cc3ccc(C(=O)O)cc3)NC(=O)[C@H](Cc3c[nH]c4ccccc34)NC2=O)cc1` [Example 154] (cyclo([AEF](Ac)W[Phe(4-COOH)]G[Pro(4R-NH2)][Trp(βS-Me,4-F)]D[dNMeA]G[Bip(4'-COOH)][1Nal][Dab][dA][hTyr])), the IC50 worked out at 196 pM.
The result for `CC(=O)NCCOc1ccc(C[C@@H]2NC(=O)[C@H](CCc3ccc(O)cc3)NC(=O)[C@@H](C)NC(=O)[C@H](CO)NC(=O)[C@H](Cc3cccc4ccccc34)NC(=O)[C@H](Cc3ccc(-c4ccc(C(=O)O)cc4)cc3)NC(=O)CNC(=O)[C@@H](C)N(C)C(=O)[C@H](CC(=O)O)NC(=O)[C@H]([C@@H](C)c3c[nH]c4cccc(F)c34)NC(=O)[C@@H]3C[C@@H](N)CN3C(=O)CNC(=O)[C@H](Cc3ccc(C(=O)O)cc3)NC(=O)[C@H](Cc3c[nH]c4ccccc34)NC2=O)cc1` [Example 155] (cyclo([AEF](Ac)W[Phe(4-COOH)]G[Pro(4R-NH2)][Trp(βS-Me,4-F)]D[dNMeA]G[Bip(4'-COOH)][1Nal]S[dA][hTyr])) reads 220 pM; that for `CC(=O)NCCOc1ccc(C[C@@H]2NC(=O)[C@H](CCc3ccc(O)cc3)NC(=O)[C@@H](C)NC(=O)[C@H](CC(C)C)NC(=O)[C@H](Cc3ccncc3)NC(=O)[C@H](Cc3ccc(-c4ccc(C(=O)O)cc4)cc3)NC(=O)CNC(=O)[C@@H](C)N(C)C(=O)[C@H](CC(=O)O)NC(=O)[C@H]([C@@H](C)c3c[nH]c4cccc(F)c34)NC(=O)[C@@H]3C[C@@H](N)CN3C(=O)CNC(=O)[C@H](Cc3ccc(C(=O)O)cc3)NC(=O)[C@H](Cc3c[nH]c4ccccc34)NC2=O)cc1` [Example 156] (cyclo([AEF](Ac)W[Phe(4-COOH)]G[Pro(4R-NH2)][Trp(βS-Me,4-F)]D[dNMeA]G[Bip(4'-COOH)][4Pal]L[dA][hTyr])), 948 pM; that for `CCC[C@@H]1NC(=O)[C@H](Cc2ccncc2)NC(=O)[C@H](Cc2ccc(-c3ccc(C(=O)O)cc3)cc2)NC(=O)CNC(=O)[C@@H](C)N(C)C(=O)[C@H](CC(=O)O)NC(=O)[C@H]([C@@H](C)c2c[nH]c3cccc(F)c23)NC(=O)[C@@H]2C[C@@H](N)CN2C(=O)CNC(=O)[C@H](Cc2ccc(C(=O)O)cc2)NC(=O)[C@H](Cc2c[nH]c3ccccc23)NC(=O)[C@H](Cc2ccc(OCCNC(C)=O)cc2)NC(=O)[C@H](CCc2ccc(O)cc2)NC(=O)[C@@H](C)NC1=O` [Example 157] (cyclo([AEF](Ac)W[Phe(4-COOH)]G[Pro(4R-NH2)][Trp(βS-Me,4-F)]D[dNMeA]G[Bip(4'-COOH)][4Pal][Nva][dA][hTyr])), 403 pM.

For the origin of these results see patent US20230406885A1, “CYCLIC PEPTIDES FOR TRAPPING INTERLEUKIN-1 BETA” (MERCK SHARP & DOHME LLC, priority 2022, published 2023).
